Laboratory results from PMC10584882 (Communications Biology, 2023).
“And” between values parts separate entries of the source, which are not always exact repeats. Identical values can stand only once. “Also recorded” adds a separate entry of the source.

Columns and labels:
[1] = tested on: LC-HK2 cells; assay: Fluorescence microscopy, S-protein vesicle size in infected LC-HK2 cells; assay type: cell-based, human; conditions: 1.5 µM, versus control
Procedure: LC-HK2 was cultivated on coverslips (13 mm diameter) to approximately 80% confluence. The cells were pre-treated for 2 h with 1.5 µM of S-Calpeptin diluted in DMEM supplemented with 2.5% FBS. The compounds were removed, and SARS-CoV-2 strain diluted in DMEM supplemented with 2.5% FBS was added to LC-HK2 cells at M.O.I of 0.05, allowing absorption for 1 h. The viral inoculum was removed, and cells were gently washed with PBS without calcium and magnesium. The cells were incubated in the continued presence of 1.5 µM of S-Calpeptin diluted in DMEM supplemented with 2.5% FBS and were examined by fluorescence microscopy at the time points 32, 40, 48, 56, 64 and 72 h post-infection.
For this purpose, the cells were fixed and permeabilized with 3.7% formaldehyde solution (Sigma-Aldrich, F1635) containing 0.2% Triton X-100 in PBS 1×. […] The images were captured using fluorescence range intensity adjusted identically within each experimental series.
Vesicles size quantifications were obtained from 2D maximum projections of Z stacks exported as grayscale TIFs (16-bit depth) using Automated Image Analysis in Zen 2.6 blue software (ZEISS). […]
In the Fluorescence microscopy evaluation, the P-values were generated by unpaired t-test using GraphPad Prism version 8.00 (La Jolla, CA, USA, www.graphpad.com). […]

[2] = biological target: T1, human CatK (Homo sapiens, UniProt P43235); assay: Cathepsin inhibition test, CatK; assay type: biochemical; conditions: for Residual activity (Vi/V0): Fig. S3 panel a, single replicates
T1 construct: made in house
T1 sequence (P43235 115-329): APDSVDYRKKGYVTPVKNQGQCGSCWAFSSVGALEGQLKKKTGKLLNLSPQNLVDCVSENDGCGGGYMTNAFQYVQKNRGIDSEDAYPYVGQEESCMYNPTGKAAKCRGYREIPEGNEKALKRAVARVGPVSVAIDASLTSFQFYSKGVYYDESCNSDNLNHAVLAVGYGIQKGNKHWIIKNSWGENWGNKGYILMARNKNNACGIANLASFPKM

[3] = tested on: SARS-CoV-2-GFP; assay: microbe, parasite or virus in culture; assay type: cell-based; conditions: mean with standard error, read-out: VERO E6 EC50
[4] = tested on: SARS-CoV-2; assay: Cytopathic effect inhibition assay in VERO-CCL81 cells; assay type: cell-based; conditions: for CPE inhibition (%): VERO CCL81, two experiments, listed as S-Calpepin
[5] = tested on: SARS-CoV-2; assay: Cytopathic effect inhibition assay in LC-HK2 cells; assay type: cell-based; conditions: for CPE inhibition (%): LC-HK2
[6] = biological target: T2, SARS-CoV-2 M^pro (Severe acute respiratory syndrome coronavirus 2, UniProt P0DTD1); assay type: biochemical; conditions: mean with 95% confidence interval; 100 nM M^pro, pH 7.3, 37 °C
T2 construct: Initially reported to target the viral main protease (M^pro); made in house
Procedure: In the enzyme inhibition assays, the initial velocities were calculated from the initial linear portions of their curves, assuming steady-state kinetics. IC50 and Ki values were calculated using GraphPad Prism software. Z-FR-AMC (CatK and CatV), Z-RR-AMC (CatB and CatL), and QS1 or Acetyl-VKLQ-AMC (M^pro) substrates were used to monitor reactions. These measurements were done in four independent duplicates or triplicates, respectively.

CCCC[C@H](NC(=O)[C@H](CC(C)C)NC(=O)OCc1ccccc1)C(O)S(=O)(=O)[O-].[Na+] (stereo partly drawn) [S-Calpeptin]
impact on vesicle morphology / S-protein vesicle size [1]: did not reveal significant differences; also recorded: no substantial impact on vesicle morphology
Residual activity (Vi/V0) ([2]; inhibitor 0.010 nM, 10 pM): 1.028 and 1.067 and 0.9629 and 0.9414 and 0.9225
Residual activity (Vi/V0) ([2]; inhibitor 0.018 nM, 18 pM): 1.062 and 1.238 and 0.9724 and 0.8624 and 0.8684
Residual activity (Vi/V0) ([2]; inhibitor 0.032 nM, 32 pM): 0.9319 and 1.215 and 0.8238 and 0.889 and 0.8605
Residual activity (Vi/V0) ([2]; inhibitor 0.058 nM, 58 pM): 0.7562 and 0.8292 and 0.7671
Residual activity (Vi/V0) ([2]; inhibitor 0.105 nM, 0.000105 µM): 1.104 and 0.8757 and 0.7581 and 0.6636 and 0.6847
Residual activity (Vi/V0) ([2]; inhibitor 0.189 nM, 0.000189 µM): 0.6363 and 0.7129 and 0.6855 and 0.6137 and 0.6926
Residual activity (Vi/V0) ([2]; inhibitor 0.340 nM, 0.00034 µM): 0.4419 and 0.3556 and 0.547 and 0.5599 and 0.6191
Residual activity (Vi/V0) ([2]; inhibitor 0.612 nM, 0.000612 µM): 0.562 and 0.5894 and 0.4634 and 0.3938 and 0.3707
Residual activity (Vi/V0) ([2]; inhibitor 1.103 nM, 0.001103 µM): 0.4683 and 0.4274 and 0.3853 and 0.3355 and 0.2949
Residual activity (Vi/V0) ([2]; inhibitor 1.985 nM, 0.001985 µM): 0.2888 and 0.2948 and 0.2332 and 0.2265 and 0.1772
Residual activity (Vi/V0) ([2]; inhibitor 3.572 nM, 0.003572 µM): 0.2021 and 0.2433 and 0.1658 and 0.1472 and 0.1161
Residual activity (Vi/V0) ([2]; inhibitor 6.430 nM, 0.00643 µM): 0.1399 and 0.09741 and 0.09721 and 0.03496
Residual activity (Vi/V0) ([2]; inhibitor 11.547 nM, 0.011547 µM): 0.01107 and 0.1108 and 0.1149 and 0.0689 and 0.02957
Residual activity (Vi/V0) ([2]; inhibitor 20.833 nM, 0.020833 µM): 0.08599 and -0.06715 and 0.04731 and 0.03845 and 0.01885
Residual activity (Vi/V0) ([2]; inhibitor 37.500 nM, 0.0375 µM): -0.05695 and -0.1347 and 0.027 and 0.005377 and -0.00068
Ki ([2]; mean with standard deviation and 95% confidence interval, pH 5.5, 37 °C): 0.05 nM
EC50 [3]: 120 ± 54 nM
CPE inhibition (%) ([4]; 0.0781 μM): 0% and 0.33%
CPE inhibition (%) ([4]; 0.625 μM): 38.01% and 20.29%
CPE inhibition (%) ([4]; 1.25 μM): 52.68% and 61.52%
CPE inhibition (%) ([4]; 2.5 μM): 60.88% and 68.39%
CPE inhibition (%) ([4]; 5 μM): 63.97% and 88.53%
CPE inhibition (%) ([4]; 10 μM): 67.47% and 80.91%
EC50 ([4]; VERO-CCL81, CellTiter-Glo, 48 h post-infection, read-out: CPE inhibition EC50): 700 nM
EC50 ([5]; LC-HK2, CellTiter-Glo, 72 h post-infection, read-out: CPE inhibition EC50): 70 nM
CPE inhibition (%) ([5]; 0.000000000001 μM (first of two lines so printed, r18)): 0%
CPE inhibition (%) ([5]; 0.000000000001 μM (second line, r19)): 0%
CPE inhibition (%) ([5]; 0.00000000001 μM): 0%
CPE inhibition (%) ([5]; 0.0000000001 μM): 0%
CPE inhibition (%) ([5]; 0.000000001 μM): 0%
CPE inhibition (%) ([5]; 0.00000001 μM, listed as S-Calpepin, 10 fM): 4.03% and 3.04%
CPE inhibition (%) ([5]; 0.0000001 μM, listed as S-Calpepin, 100 fM): 0% and 1.04%
CPE inhibition (%) ([5]; 0.000001 μM, listed as S-Calpepin, 1 pM): 0% and 4.71%
CPE inhibition (%) ([5]; 0.00001 μM, listed as S-Calpepin, 10 pM): 5.52% and 8.92%
CPE inhibition (%) ([5]; 0.0001 μM, listed as S-Calpepin): 7.19% and 6.77%
CPE inhibition (%) ([5]; 0.001 μM, listed as S-Calpepin): 23.15% and 18.35%
CPE inhibition (%) ([5]; 0.01 μM, listed as S-Calpepin): 22.53% and 19.69%
CPE inhibition (%) ([5]; 0.1 μM, listed as S-Calpepin): 56.52% and 41.43%
CPE inhibition (%) ([5]; 1 μM, listed as S-Calpepin): 87.89% and 72.23%
CPE inhibition (%) ([5]; 10 μM, listed as S-Calpepin): 85.17% and 78.3%
Ki [6]: 4.7 µM
